Data set [1] is described as follows: Microsomal stability assay, HLM. The data set is classed as in vitro ADME. Particulars: pooled human liver microsomes, pH 7.4; 3 μM compound, 0.5 mg/ml human liver microsomes, 37° C., 2 mM NADPH; read-out: HLM t1/2. The protocol:
(§1) Assay 3: Microsomal Stability Assay
(§2) Compounds were tested on their stability in human, rat and mouse liver microsomal preparations (HLM, RLM and MLM respectively). At a final concentration of 3 μM, compounds were incubated at 37° C. with 0.5 mg/ml human, rat or mouse liver microsomes in a buffer containing 50 mM phosphate, pH 7.4 and 2 mM NADPH. Pooled human liver microsomes or pooled male rat liver microsomes (Sprague Dawley) were obtained from NatuTec (Frankfurt, Germany). Incubations without NADPH served as negative controls. Reactions were stopped after 0, 15, 30, 45 or 60 min by the addition of acetonitrile and microsomes were pelleted by centrifugation (10 min at 6200×g). Supernatants were analyzed by HPLC regarding the concentration of mother compound. Finally, the half life of compounds in the regarding microsomal preparation was calculated.
On the technique in general: Liver microsomes are vesicles of endoplasmic reticulum, rich in cytochrome P450 enzymes.

The nature of data set [2]: Microsomal stability assay, RLM. The data set is classed as in vitro ADME. The conditions noted are these: male, Sprague Dawley, pooled rat liver microsomes, pH 7.4; 3 μM compound, 0.5 mg/ml rat liver microsomes, 37° C., 2 mM NADPH; read-out: RLM t1/2. The protocol:
as §1, §2

A short description of data set [3]: Microsomal stability assay, MLM. The data set is classed as in vitro ADME. The conditions noted are these: pH 7.4; 3 μM compound, 0.5 mg/ml mouse liver microsomes, 37° C., 2 mM NADPH; read-out: MLM t1/2. The method, then: as §1, §2
The test system of the next data set is Caco-2 cells. As to the kind of experiment: Caco-2 permeability assay. The data set is classed as in vitro ADME. The conditions noted are these: 10 μM, pH 7.4, 120 minutes; for Caco A-B: Papp apical to basolateral; for Caco B-A: Papp basolateral to apical. The method, then:
Assay 4: Caco-2 Permeability Assay
Caco-2 cells obtained from the ATCC at passage number 27 are used. Cells (passage number 40-60) were seeded on to Millipore Multiscreen Caco-2 plates or Falcon HTS inserts at 1×10^5 cells/cm2. Cells were cultured for 20 days in DMEM and media was changed every two or three days. On day 20 the permeability study was performed.
Permeability was studied by applying compound to the apical surface of cell monolayers and measuring compound permeation into the basolateral compartment. The experiment was also performed in the reverse direction (B-A) to investigate active transport. Hanks Balanced Salt Solution (HBSS) pH 7.4 buffer with 25 mM HEPES and 10 mM glucose at 37° C. was used as the medium in permeability studies. Incubations were carried out in an atmosphere of 5% CO2 with a relative humidity of 95%.
The monolayers were prepared by rinsing both basolateral and apical surfaces twice with HBSS at 37° C. Cells were then incubated with HBSS in both apical and basolateral compartments for 40 minutes to stabilize physiological parameters.
HBSS was then removed from the apical compartment and replaced with test compound dosing solutions. The solutions were made by diluting 10 mM DMSO concentrates with HBSS to give a final test compound concentration of 10 μM (final DMSO concentration adjusted to 1%). The fluorescent integrity marker lucifer yellow was also included in the dosing solution. Analytical standards were made from dosing solutions. Test compound permeability was assessed in duplicate. On each plate compounds of known permeability characteristics were run as controls.
The apical compartment inserts were then placed into ‘companion’ plates containing fresh HBSS. For basolateral to apical (B-A) experiments the experiment was initiated by replacing buffer in the inserts then placing them in companion plates containing dosing solutions. At 120 minutes the companion plate was removed and apical and basolateral samples diluted for analysis by LC-MS/MS (the donor compartment was also sampled to permit determination of starting concentration after non-specific binding has occurred).
The integrity of the monolayers throughout the experiment is checked by monitoring lucifer yellow permeation using fluorimetric analysis. Lucifer yellow permeation was low if monolayers have not been damaged. Test and control compounds were quantified by LC-MS/MS cassette analysis using a 5-point calibration with appropriate dilution of the samples. Should lucifer yellow Papps were above QC limits in more than one well per test compound, the compound was re-tested.
The permeability coefficient for each compound (Papp) was calculated from the following equation: Papp=[dQ/dt]/[C0×A]
Whereby dQ/dt is the rate of permeation of the drug across the cells, C0 is the donor compartment concentration at time zero and A is the area of the cell monolayer. C0 is obtained from analysis of the donor compartment at the end of the incubation period.
Test compounds were grouped into low, medium or high absorption potential based on comparison with control compounds, which have known human absorption.
In addition, permeation was studied in both directions across the cells, and an asymmetry index was reported from mean A-B and B-A data. This was derived from: Papp(B-A)/Papp(A-B)
Wherein “+” means a caco A-B and caco B-A value of 1-10 and “++” means a caco A-B and caco B-A value of 11-100.
On the technique in general: Passage across Caco-2 layers is used to estimate intestinal permeability.

In the next data set the target is human MEK1 (Homo sapiens, UniProt Q02750). As to the kind of experiment: MEK-1 Enzyme Assay (LANCE-HTRF). It is filed as biochemical. The conditions noted are these: 100 nM MEK1, 15 μM ATP, 300 nM ERK2, two hours; read-out: MEK inhibition. The method in brief:
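TR-FRET readout of MEK1-catalysed ERK1 phosphorylation; after a 2 h reaction, Eu-anti-PY20 (5 nM) and anti-GST-APC (50 nM) were added in buffer with 50 mM EDTA and 0.05% BSA, then incubated 1 h in the dark.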

In the next data set the test system is Murine colon C26 cells. As to the kind of experiment: Tumor cell proliferation assay (ATP Lite), C26. The conditions noted are these: Mus musculus, 96 h, 4 days. It is filed as cell-based. In outline:
(§3)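 Cells seeded at 1500/well (C26) or 2000/well (A375, MiaPaCa-2) grew overnight, then were exposed to serially diluted compounds (0.25% DMSO final) for 4 days in serum-containing DMEM or RPMI. Viability read by ATPlite luminescence; IC50 is the concentration giving 50% cell death.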

For the next data set, the system named is human melanoma cell MeI5. As to the kind of experiment: Tumor cell proliferation assay (ATP Lite), MeI5. It is filed as cell-based. The conditions noted are these: MeI5 cells. The protocol: Assay 2: Tumor Cell Proliferation Assays (ATP Lite)
Murine colon C26, human melanoma A375 and MeI5 or human pancreatic MiaPaCa-2 cells were plated in 96 well Corning white plates (1500 cells/well for C26, and 2000 cells/well for A375, and MiaPaCa-2) and cultured overnight at 37° C. in 5% CO2. Inhibitors were serially diluted in 100% DMSO and subsequently added to cells to reach a final concentration of 0.25% DMSO. The cells were incubated for 4 days in the presence of test compounds in cell growth media (DMEM with 10% fetal bovine serum, 2 mM glutamine for C26, and MiaPaCa-2, and RPMI with 10% fetal bovine serum, 2 mM glutamine for A375). Cell proliferation was quantitated using the ATP lite cell proliferation kit (Packard). Columns 4-6 show the concentration of compounds required to induce 50% cell death (IC50 in μM) of […]. With “+” meaning 3 μM<IC50≦10 μM and “++” IC50≦3 μM and “n.d.” means not determined. Few compounds were also tested on human melanoma cell MeI5.

Data set [4] deals with human melanoma A375 cells. As to the kind of experiment: Tumor cell proliferation assay (ATP Lite), A375. The data set is classed as cell-based. Particulars: A-375, 96 h, 4 days. In outline: as §3
In data set [5] the test system is human pancreatic MiaPaCa-2 cells. Nature of the data set: Tumor cell proliferation assay (ATP Lite), MiaPaCa-2. The data set is classed as cell-based. The conditions noted are these: MIA PaCa-2, 96 h, 4 days. In outline: as §3

Where a name gives a salt, the structure may show the parent alone. Some results are limits rather than exact numbers.

human MEK1, sequence (Q02750 whole entry): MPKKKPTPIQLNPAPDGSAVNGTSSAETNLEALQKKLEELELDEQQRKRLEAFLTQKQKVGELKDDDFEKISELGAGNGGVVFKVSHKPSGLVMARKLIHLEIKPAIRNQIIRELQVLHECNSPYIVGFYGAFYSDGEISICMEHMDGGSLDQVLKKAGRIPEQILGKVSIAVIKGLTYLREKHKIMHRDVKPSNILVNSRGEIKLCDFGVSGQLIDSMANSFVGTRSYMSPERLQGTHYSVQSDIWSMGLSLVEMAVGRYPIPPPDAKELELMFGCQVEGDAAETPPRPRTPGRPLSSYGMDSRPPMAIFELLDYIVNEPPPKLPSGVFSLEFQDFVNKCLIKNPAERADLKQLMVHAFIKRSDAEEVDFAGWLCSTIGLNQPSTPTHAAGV

As to `OCCNc1nnc(-c2ccncc2Nc2ccc(Br)cc2F)o1` [Example 127, 2-{5-[3-(4-Bromo-2-fluoro-phenylamino)-pyridin-4-yl]-[1,3,4]oxadiazol-2-ylamino}-ethanol], the half-life at 3 µM was above 2 h in [1], above 2 h in [2] and 0.0167 to 0.5 h in [3]. The “Caco A-B” value in the data set on Caco-2 cells is “++ (a caco A-B and caco B-A value of 11-100)”. In addition, the “Caco B-A” value with Caco-2 cells was “++ (a caco A-B and caco B-A value of 11-100)”.

Regarding `CNCCNc1nnc(-c2ccncc2Nc2ccc(Br)cc2F)o1` [Example 128, N-{5-[3-(4-Bromo-2-fluoro-phenylamino)-pyridin-4-yl]-[1,3,4]oxadiazol-2-yl}-N′-methyl-ethane-1,2-diamine], the IC50 on human MEK1 was below 1 µM. In data set [1], the half-life at 3 µM is above 2 h. For the same molecule, the half-life at 3 µM in data set [2] fell in the range of 0.517 to 2 h. In the data set with Caco-2 cells, the “Caco A-B” value is “++ (a caco A-B and caco B-A value of 11-100)”; the “Caco B-A” value was “++ (a caco A-B and caco B-A value of 11-100)”.

For `Cc1cc(I)ccc1Nc1cnccc1C(=O)NOC[C@@H](O)CO` [Example 124, N—((S)-2,3-Dihydroxy-propoxy)-3-(4-iodo-2-methyl-phenylamino)-isonicotinamide], the IC50 is below 1 µM on human MEK1, 3 to 10 µM with Murine colon C26 cells and at most 3 µM in the data set on human melanoma cell MeI5.

`CCONC(=O)c1ccncc1Nc1ccc(Br)cc1C` [Example 4, 3-[(4-Bromo-2-methylphenyl)amino]-N-ethoxyisonicotinamide]: the IC50 at human MEK1 is below 1 µM; in data set [4] it was at most 3 µM; in the data set with human melanoma cell MeI5 it was 3 to 10 µM. The half-life at 3 µM in data set [1] and in data set [2] was 0.517 to 2 h each time.

Consider `C=CCNc1nnc(-c2ccncc2Nc2ccc(Br)cc2C)o1` [Example 129, [4-(5-Allylamino-[1,3,4]oxadiazol-2-yl)-pyridin-3-yl]-(4-bromo-2-methyl-phenyl)-amine], for which the IC50 on human MEK1 is below 1 µM. Further, the half-life at 3 µM is above 2 h in [1], 0.517 to 2 h in data set [2] and above 2 h in [3]. Moreover, in the data set on Caco-2 cells, the “Caco A-B” value was “++ (a caco A-B and caco B-A value of 11-100)”. In addition, the “Caco B-A” value with Caco-2 cells is “++ (a caco A-B and caco B-A value of 11-100)”.

For `CCONC(=O)c1ccncc1Nc1ccc(I)cc1C` [Example 5, N-Ethoxy-3-[(4-iodo-2-methylphenyl)amino]isonicotinamide], the IC50 is below 1 µM on human MEK1, 3 to 10 µM with Murine colon C26 cells, at most 3 µM in data set [4] and at most 3 µM in the data set on human melanoma cell MeI5.

For the molecule `O=C(NCCCCCO)c1ccncc1Nc1ccc(I)cc1Cl` [Example 36, 3-(2-Chloro-4-iodo-phenylamino)-N-(5-hydroxy-pentyl)-isonicotinamide], the IC50 on human MEK1 was below 1 µM; in the data set on Murine colon C26 cells, at most 3 µM; in data set [4], at most 3 µM; in data set [5], at most 3 µM.

Regarding `O=C(O)c1ccc(CCNC(=O)c2ccncc2Nc2ccc(I)cc2F)cc1` [Example 102, 4-[2-({3-[(2-fluoro-4-iodophenyl)amino]isonicotinoyl}-amino)ethyl]benzoic acid], the IC50 is below 1 µM on human MEK1, 3 to 10 µM in the data set with Murine colon C26 cells, at most 3 µM in data set [4] and 3 to 10 µM in data set [5].

Turning to `COCCNC(=O)c1ccncc1Nc1ccc(I)cc1F` [Example 16, 3-(2-Fluoro-4-iodo-phenylamino)-N-(2-methoxy-ethyl)-isonicotinamide], the IC50 at human MEK1 was below 1 µM; with Murine colon C26 cells, at most 3 µM; in [4] it was at most 3 µM; in data set [5], at most 3 µM.

As for `O=C(NCC(O)COc1ccccc1)c1ccncc1Nc1ccc(I)cc1F` (stereo not drawn) [Example 83], the IC50 on human MEK1 is below 1 µM; with Murine colon C26 cells it was at most 3 µM; in data set [4], at most 3 µM; in data set [5], at most 3 µM.

Consider `Cc1cc(I)ccc1Nc1cnccc1C(=O)NS(C)(=O)=O` [Example 123, N-[3-(4-Iodo-2-methyl-phenylamino)-pyridine-4-carbonyl]-methanesulfonamide], for which, on human MEK1, the IC50 is below 1 µM. Moreover, the figures for the half-life at 3 µM in data set [1] and in data set [2] were 0.517 to 2 h and 0.0167 to 0.5 h, respectively.

`NC1CCN(C(=O)c2ccncc2Nc2ccc(I)cc2F)CC1` [Example 44, 4-[(4-aminopiperidin-1-yl)carbonyl]-N-(2-fluoro-4-iodophenyl)pyridin-3-amine hydrochloride]: the IC50 at human MEK1 is below 1 µM; in the data set on Murine colon C26 cells, 3 to 10 µM; in [4], at most 3 µM; in data set [5], 3 to 10 µM.

Consider `COc1ccccc1CCNC(=O)c1ccncc1Nc1ccc(I)cc1F` [Example 27, 3-[(2-fluoro-4-iodophenyl)amino]-N-[2-(2-methoxyphenyl)-ethyl]isonicotinamide], for which the IC50 on human MEK1 is below 1 µM; in the data set on Murine colon C26 cells it was 3 to 10 µM; in data set [4] it was 3 to 10 µM; in data set [5] it was 3 to 10 µM.

With `O=C(NCc1ccc(F)cc1F)c1ccncc1Nc1ccc(I)cc1F` [Example 93, N-(2,4-difluorobenzyl)-3-[(2-fluoro-4-iodophenyl)amino]-isonicotinamide], the IC50 at human MEK1 is below 1 µM; in the data set with Murine colon C26 cells, 3 to 10 µM; in data set [4], at most 3 µM; in data set [5], 3 to 10 µM.

For the molecule `O=C(NCCCn1ccnc1)c1cc(Br)ncc1Nc1ccc(I)cc1F` [Example 72, 2-Bromo-5-(2-fluoro-4-iodo-phenylamino)-N-(3-imidazol-1-yl-propyl)-isonicotinamide], the IC50 is below 1 µM at human MEK1, 3 to 10 µM in the data set on Murine colon C26 cells, at most 3 µM in data set [4] and 3 to 10 µM in data set [5].

For the origin of these results see US8524911B2, “3-arylamino pyridine derivatives” (Merck Serono SA, priority 2004, dated 2013).
